Our source for the IC50 values is patent publication US5719303A, “Phosphonic acid derivatives” (Eisai Co., Ltd., priority 1993, dated 1998).

The target of the test is T1, squalene synthetase (Rattus norvegicus, UniProt Q02769).
T1 construct: 50 μl of a 1 mg/ml rat liver microsome; from tissue; host or cells: liver microsomes of Sprague-Dawley rats fed 2% cholestyramine; 105000 g fraction
T1 sequence (Q02769 1-416): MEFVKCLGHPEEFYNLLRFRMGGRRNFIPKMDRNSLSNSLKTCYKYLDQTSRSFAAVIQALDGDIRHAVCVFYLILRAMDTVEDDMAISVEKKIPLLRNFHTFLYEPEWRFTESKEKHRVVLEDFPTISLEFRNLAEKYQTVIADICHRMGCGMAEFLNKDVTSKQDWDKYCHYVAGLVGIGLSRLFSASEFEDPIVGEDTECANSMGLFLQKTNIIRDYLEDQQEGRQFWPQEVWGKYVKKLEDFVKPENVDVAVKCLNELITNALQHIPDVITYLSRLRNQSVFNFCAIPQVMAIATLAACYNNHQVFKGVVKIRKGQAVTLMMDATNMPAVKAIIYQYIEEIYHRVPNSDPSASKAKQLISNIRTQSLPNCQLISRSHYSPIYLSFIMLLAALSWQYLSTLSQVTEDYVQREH
Nature of the test: Inhibitory activity against squalene synthetase (3H-FPP to squalene, rat liver microsome). The test is classed as biochemical. To be noted: 3H-FPP substrate, 37° C., 10 minutes, pH 7.4. How it is done: 50 μl of 500 mM Tris-HCl (pH: 7.4), 50 μl of 10 mM magnesium chloride, 50 μl of 2 mM potassium fluoride, 50 μl of 10 mM nicotinamide adenine dinucleotide phosphate (hereinafter abbreviated to "NADPH"), 100 μl of a sample solution of five-fold concentration, 100 μl of distilled water and 50 μl of a 1 mg/ml rat liver microsome were put in a centrifuge tube, with the liver microsome being one prepared by the method which will be described below.
The above mixture was preincubated at 37° C. for 5 minutes. 50 μl of 100 μM 3H-FPP (10 mCi/mmol, NEN) was added to the resulting mixture to initiate a reaction. After 10 minutes, 1 ml of 4N sodium hydroxide was added to the mixture to stop the reaction, followed by the addition of 1 ml of ethanol. The obtained mixture was incubated at 80° C. for 12 hours, cooled with ice and extracted with petroleum ether twice. The petroleum ether phases were separated from the aqueous phase and evaporated to dryness with nitrogen gas. The residue was dissolved in 25 μl of chloroform containing squalene, farnesol and cholesterol as markers. The obtained solution was applied to TLC (Empore: 412001-1) and developed with benzene/isopropyl ether (1:1) for 6 minutes and with heptane for 15 minutes.
The band of squalene was cut from the plate and examined for radioactivity with a liquid scintillation counter to determine the inhibitory ratio.
The rate liver microsome used in the above experiment was prepared as follows.
A Sqraque-Dawley rat was fed with a feed containing 2% of cholestyramine (Dowex 1-X2) for at least 5 days to enhance the cholesterol biosynthesis activity. At midnight (0:00), the liver was extirpated from the rat. A 1.15 (w/v) % potassium chloride solution was circulated in the blood vessel of the liver extirpated under cooling with ice to remove the blood. The resulting liver was cut into small pieces with scissors, homogenized with a Teflon homogenizer of loose fitting type and subjected to centrifugation (700 g, 10 minutes). The obtained supernatant was further subjected to centrifugation (15000 g, 20 minutes) and the obtained supernatant was subjected to centrifugation (105000 g, 60 minutes) to be separated into a microsome fraction and a supernatant. This microsome fraction was washed with a 0.1M potassium phosphate buffer (pH: 7.4) once, and suspended in the same buffer in a liver concentration of 3 g/ml. The obtained suspension was examined for protein content by the Lowry method and the protein content of the suspension was adjusted to 20 mg/ml.
With `C/C(=C\CC(P(=O)(O)O)P(=O)(O)O)CCc1ccc2ccccc2c1` [Example 223], 1 nM corresponded to half-maximal inhibition (IC50). In the case of `O=P(O)(O)C(CC1CCN(Cc2cccc(/C=C/c3ccccc3)c2)CC1)P(=O)(O)O` [Example 209], it took 1.3 nM to reach half-maximal inhibition (IC50). This IC50 and that of the compound before are within 1.5-fold of each other. Then `CN(CCCC(P(=O)(O)O)P(=O)(O)O)Cc1ccc(-c2cccnc2)s1` [Example 41], with 5 nM; and `C/C(=C\CN(C)CC(O)CC(C(=O)O)P(=O)(O)O)CCc1ccc2ccccc2c1` (mixture of isomers) [Example 19, Trisodium 1-carboxy-4-[N-methyl-3-methyl-5-(2-naphthyl)-2-pentenylamino]-3-hydroxybutylphosphonate (diastereomeric mixture)], with 170 nM; and `CC(C)=CCC/C(C)=C/CN(C)C(=O)OCCCC(P(=O)(O)O)P(=O)(O)O` [Example 15, Tetrasodium 4-[(E)-N-(3,7-dimethylocta-2,6-dienyl)-N-methylcarbamoyloxybutylidene-1,1-diphosphonate], with 0.81 nM. As for `CN(CCCC(P(=O)(O)O)P(=O)(O)O)Cc1ccc(-c2ccccc2)cc1` [Example 32], the figure is 1.4 nM; as for `CC(O)c1ccc(-c2ccc(CN(C)CCCC(P(=O)(O)O)P(=O)(O)O)s2)cc1` (stereo not drawn) [Example 42], 1.8 nM; as for `CC(=O)c1ccc(Cc2ccc(CN(C)CCCC(P(=O)(O)O)P(=O)(O)O)cc2)cc1` [Example 246], 3.1 nM.

Consider `COc1ccccc1C(C)=CCN(C)CCCC(P(=O)(O)O)P(=O)(O)O` [Example 114], for which the IC50 is 2.4 nM.

Take `CN(CCCC(P(=O)(O)O)P(=O)(O)O)Cc1ccc(C(=O)c2ccccc2)c(O)c1` [Example 201]: the IC50 came to 0.91 nM. Then `Cc1c(-c2ccccc2)ncn1CCCNC(P(=O)(O)O)P(=O)(O)O` [Example 210], with 4 nM; and `CC(=O)c1cccc(/C(C)=C/CN(C)CCCC(P(=O)(O)O)P(=O)(O)O)c1` [Example 238], with 0.54 nM; and `CC(O)c1ccc(Cc2ccc(CN(C)CCCC(P(=O)(O)O)P(=O)(O)O)cc2)cc1` (stereo not drawn) [Example 14, Tetrasodium 4[N-methyl-4-[4-(1-hydroxyethyl)benzyl]benzylamino]butylidene-1-diphosphonate], with 2.4 nM. Then `CC(C)=CCC/C(C)=C/CC/C(C)=C/c1cccc(C(P(=O)(O)O)P(=O)(O)O)c1` [Example 230], with 3 nM; and `COc1ccc(C(=O)C2CCN(CCCC(P(=O)(O)O)P(=O)(O)O)CC2)cc1` [Example 16, 4-[4(4-Methoxybenzoyl)piperidino]butylidene-1,1-diphosphonic acid], with 0.28 nM.
